# Measurements reported in patent US6140353A, “N-(4-carb-amimidophenyl)glycineamide derivatives” (Hoffmann-La Roche Inc., priority 1997, dated 2000).
# Structures can show the parent of a compound that is named as a salt.
# Biological target: T1, factor VIIa/tissue factor complex (Homo sapiens, UniProt P08709)
# T1 construct: 9 nM of soluble factor VIIa
# Test: Inhibition of the amidolytic activity of the factor VIIa/tissue factor complex (chromogenic peptide substrate)
# Format: biochemical
# Conditions: chromogenic substrate Chromozym-tPA (3.5 mM), pH 7.5, room temperature, 15 minutes incubation, 10 minutes kinetic reading
# Description: The measurements were carried out on microtiter plates at room temperature. To this end, per well of the plate, 100 μl of a solution of 26 nM of tissue factor, 9 nM of soluble factor VIIa and 8 mM of calcium chloride were added to 25 μl of a solution of the inhibitor in a buffer [pH 7.5, 100 mM, comprising 0.14 M NaCl, 0.1 M N(2-hydroxyethyl)piperazine-N'-(2-ethanesulphonic acid) (HEPES), 0.5 mg/l of fatty-acid-free BSA (bovine serum albumin) and 0.05% NaN3 ]. After an incubation time of 15 minutes, the reaction was started by addition of 50 μl of chromogenic substrate Chromozym-tPA (3.5 mM, MeSO2 -D-Phe-Gly-Arg-paranitroanilide), and the hydrolysis of the substrate was followed spectrophotometrically on a kinetic microtiter plate reader over 10 minutes. Using the plot of the inhibition curves, the Ki values were determined according to the method described in Biochem. J., 55:170-171 (1953).
# T1 sequence (P08709 213-466 limits assumed): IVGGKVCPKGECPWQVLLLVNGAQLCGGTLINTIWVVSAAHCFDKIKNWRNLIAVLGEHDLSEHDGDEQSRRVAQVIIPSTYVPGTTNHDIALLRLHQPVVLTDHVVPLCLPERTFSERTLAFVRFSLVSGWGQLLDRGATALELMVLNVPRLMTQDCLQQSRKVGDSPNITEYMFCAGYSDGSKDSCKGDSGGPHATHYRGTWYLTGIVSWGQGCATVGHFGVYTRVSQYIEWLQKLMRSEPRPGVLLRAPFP
# T1 sequence (P08709 61-212 partner limits assumed): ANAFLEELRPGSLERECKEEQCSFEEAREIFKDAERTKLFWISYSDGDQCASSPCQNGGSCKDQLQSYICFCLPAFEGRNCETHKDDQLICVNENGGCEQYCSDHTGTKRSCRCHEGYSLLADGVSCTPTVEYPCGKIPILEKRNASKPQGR
# T1 sequence (P13726 33-295 partner): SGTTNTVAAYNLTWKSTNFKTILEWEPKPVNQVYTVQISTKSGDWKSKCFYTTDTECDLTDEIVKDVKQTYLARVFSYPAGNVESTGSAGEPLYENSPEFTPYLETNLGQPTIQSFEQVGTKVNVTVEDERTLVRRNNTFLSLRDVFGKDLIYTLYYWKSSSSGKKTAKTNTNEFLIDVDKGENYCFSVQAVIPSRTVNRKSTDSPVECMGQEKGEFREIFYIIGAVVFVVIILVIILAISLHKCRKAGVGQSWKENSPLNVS
row,Ki [nM],Structure (SMILES)
1,112,"COc1cc(C(Nc2ccc(C(=N)N)cc2)C(=O)NCc2ccccc2)c(NS(=O)(=O)c2ccccc2)cc1O (stereo not shown) [Example 10, 2-(2-phenylsulphonylamino-4-hydroxy-5-methoxyphenyl)-N-benzyl-2-(4-carbamimidoylphenylamino)acetamide acetate]"
2,160,"COc1ccc(C(Nc2ccc(C(=N)N)cc2)C(=O)NC(c2ccccc2)c2ccccc2)cc1OC (racemic) [Example 5c, (R,S)-N-benzhydryl-2-(4-carbamimidoylphenylamino)-2-(3,4-dimethoxyphenyl)acetamide hydrochloride]"
3,280,"COc1ccc(C(Nc2ccc(C(=N)N)cc2)C(=O)NCc2ccccc2)cc1OC (racemic) [Example 2a, (R,S)-N-benzyl-2-(4-carbamimidoylphenylamino)-2-(3,4-dimethoxyphenyl)acetamide hydrochloride]"
4,150,"COc1cc(C(Nc2ccc(C(=N)N)cc2)C(=O)NCc2ccccc2)c(NS(=O)(=O)c2ccccc2)cc1OCc1ccccc1 (stereo not shown) [Example 8, 2-(2-phenylsulphonylamino-4-benzyloxy-5-methoxyphenyl)-N-benzyl-2-(4-carbamimidoylphenylamino)acetamide acetate]"
5,260,"COc1cc(C(Nc2ccc(C(=N)N)cc2)C(=O)NCc2ccccc2)ccc1OCc1ccc2c(c1)NCCC2 (racemic) [Example 7f, (R,S)-N-benzyl-2-(4-carbamimidoylphenylamino)-2-[3-methoxy-4-(1,2,3,4-tetrahydroquinolin-7-ylmethoxy)phenyl]acetamide acetate]"
6,210,"COc1cc(C(Nc2ccc(C(=N)N)cc2)C(=O)NCc2ccccc2)ccc1OCCc1ccccc1 (racemic) [Example 7h, (R,S)-N-benzyl-2-(4-carbamimidoylphenylamino)-2-[3-methoxy-4-phenethyloxyphenyl)acetamide acetate]"
7,44,"CCOc1cc(C(Nc2ccc(C(=N)N)cc2)C(=O)NCc2ccccc2)ccc1OCc1ccccc1 (racemic) [Example 5g, (R,S)-N-benzyl-2-(4-benzyloxy-3-ethoxyphenyl)-2-(4-carbamimidoylphenylamino)acetamide hydrochloride]"
8,50,"COc1cc(C(Nc2ccc(C(=N)N)cc2)C(=O)NCc2ccccc2)ccc1OCc1ccccc1 (racemic) [Example 1, (R,S)-N-benzyl-2-(4-benzyloxy-3-methoxyphenyl)-2-(4-carbamimidoylphenylamino)acetamide hydrochloride]"
9,110,"COc1cc(C(Nc2ccc(C(=N)N)cc2)C(=O)NCc2ccccc2)ccc1OCc1ccc2[nH]ccc2c1 (racemic) [Example 7e, (R,S)-N-benzyl-2-(4-carbamimidoylphenylamino)-2-[4-(1H-indol-5-ylmethoxy)-3-methoxyphenyl]acetamide acetate]"
10,170,COc1cc(C(Nc2ccc(C(=N)N)cc2)C(=O)NCc2ccccc2)ccc1OCc1ccc2cnccc2c1 (racemic) [Example 7n]
11,110,"CCOc1ccc(C(Nc2ccc(C(=N)N)cc2)C(=O)NCc2ccccc2)cc1OCC (racemic) [Example 5d, (R,S)-N-benzyl-2-(4-carbamimidoylphenylamino)-2-(3,4-diethoxyphenyl)acetamide hydrochloride]"
12,170,"COc1cc(C(Nc2ccc(C(=N)N)cc2)C(=O)Nc2ccccc2)ccc1OCc1ccccc1 (racemic) [Example 7s, (R,S)-2-(4-benzyloxy-3-methoxyphenyl)-2-(4-carbamimidoylphenylamino)-N-phenylacetamide acetate]"
13,220,"COc1cccc(COc2ccc(C(Nc3ccc(C(=N)N)cc3)C(=O)NCc3ccccc3)cc2OC)c1 (racemic) [Example 6, (R,S)-N-benzyl-2-(4-carbamimidoylphenylamino)-2-[3-methoxy-4-(3-methoxybenzyloxy)phenyl]) acetamide acetate]"
14,190,"COc1cc(C(Nc2ccc(C(=N)N)cc2)C(=O)NCc2ccccc2)ccc1OCc1ccncc1 (stereo not shown) [Example 7a, N-benzyl-2-(4-carbamimidoylphenylamino)-2-[3-methoxy-4-(pyridin-4-ylmethoxy)phenyl]acetamide acetate]"
15,280,"COc1cc(C(Nc2ccc(C(=N)N)cc2)C(=O)NCc2ccccc2)cc(OC)c1OC (racemic) [Example 5a, (R,S)-N-benzyl-2-(4-carbamimidoylphenylamino)-2-(3,4,5-trimethoxyphenyl)acetamide hydrochloride]"
16,190,"COc1cc(OC)cc(C(Nc2ccc(C(=N)N)cc2)C(=O)NCc2ccccc2)c1 (racemic) [Example 5b, (R,S)-N-benzyl-2-(4-carbamimidoylphenylamino)-2-(3,5-dimethoxyphenyl)acetamide hydrochloride]"
